Reference: PMC12990037, “Discovery of Two Structurally Distinct Classes of Inhibitors Targeting the Nuclease MUS81 and Enhancing Efficacy of Chemotherapy in Cancer Cells” (Journal of Medicinal Chemistry, 2026)

How the values were obtained:
MUS81–EME1 = target: T1, MUS81–EME1 (Homo sapiens, UniProt Q96NY9); assay: Gel-based in vitro nuclease assay: cleavage of 3′flap DNA by purified MUS81–EME1; assay type: biochemical; conditions: for activity in the in vitro assay: negative control compounds
T1 construct: The MUS81–EME1 full-length expression plasmid was obtained from Stephen C; West; made in house; host or cells: Escherichia coli
T1 sequence (Q96NY9 1-551): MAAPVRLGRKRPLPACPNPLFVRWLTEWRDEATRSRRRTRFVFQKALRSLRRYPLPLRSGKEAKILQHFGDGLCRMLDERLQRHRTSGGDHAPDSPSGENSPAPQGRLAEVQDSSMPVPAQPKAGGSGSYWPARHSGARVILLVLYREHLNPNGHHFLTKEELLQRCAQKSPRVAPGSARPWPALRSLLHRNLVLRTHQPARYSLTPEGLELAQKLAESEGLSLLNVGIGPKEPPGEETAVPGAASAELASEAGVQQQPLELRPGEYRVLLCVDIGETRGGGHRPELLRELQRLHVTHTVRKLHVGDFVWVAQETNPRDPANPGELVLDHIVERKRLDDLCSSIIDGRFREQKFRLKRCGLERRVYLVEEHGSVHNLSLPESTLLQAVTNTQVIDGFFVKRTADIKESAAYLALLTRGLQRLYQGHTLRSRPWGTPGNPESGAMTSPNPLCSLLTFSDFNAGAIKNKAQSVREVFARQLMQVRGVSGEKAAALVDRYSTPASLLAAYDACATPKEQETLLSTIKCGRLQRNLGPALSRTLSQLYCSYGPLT
T1 sequence (Q96AY2 1-570 partner): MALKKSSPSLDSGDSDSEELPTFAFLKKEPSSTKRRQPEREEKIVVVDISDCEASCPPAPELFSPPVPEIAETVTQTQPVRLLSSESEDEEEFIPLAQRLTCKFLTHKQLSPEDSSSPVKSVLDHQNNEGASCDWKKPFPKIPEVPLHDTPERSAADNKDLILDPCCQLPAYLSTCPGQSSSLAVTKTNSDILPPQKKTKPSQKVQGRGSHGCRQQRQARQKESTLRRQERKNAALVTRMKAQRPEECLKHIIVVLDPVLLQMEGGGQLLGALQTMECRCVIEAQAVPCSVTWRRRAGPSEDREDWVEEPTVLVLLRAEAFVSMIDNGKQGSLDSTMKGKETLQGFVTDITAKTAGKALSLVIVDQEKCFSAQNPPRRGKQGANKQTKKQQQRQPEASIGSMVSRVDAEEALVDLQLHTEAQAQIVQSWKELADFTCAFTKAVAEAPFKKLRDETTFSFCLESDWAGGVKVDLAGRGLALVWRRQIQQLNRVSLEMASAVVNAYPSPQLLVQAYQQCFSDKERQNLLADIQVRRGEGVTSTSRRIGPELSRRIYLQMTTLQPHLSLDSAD
Description: To identify the small-molecule inhibitors of MUS81, we used two complementary screening approaches. The first involved a structure-based virtual screening, where over 140,000 small molecules were docked into the active site of MUS81 using AutoDock Vina software. […] The cleavage by purified MUS81-EME1 was monitored by gel electrophoresis, and the compound activity was quantified by measuring the reduction in cleavage product intensity.
Nuclease assays were performed in reaction buffer containing 50 mM Tris pH 7.5, 10 mM MgCl2, 1 mM DTT, 85 mM KCl, and 20% glycerol. Purified MUS81–EME1 (1 nM) was preincubated in 9 μL reaction with indicated concentrations of inhibitors for 15 min at room temperature, followed by the addition of 3 nM of a 3′flap DNA substrate (listed in Supplementary Table 9) and a further incubation for 15 min at 37 °C. The final concentration of DMSO in the reactions was 2%. The reactions were stopped by the addition of 0.1% SDS and 500 μg/mL of proteinase K, followed by incubation for 5 min at 37 °C. […] The fluorescent DNA was visualized using a FLA-9000 (Fujifilm). Bands corresponding to cleaved substrates were selected for quantification using the MultiGauge 3.2 software. Final data represent integrated density of these bands with background subtraction. Fitting of the data with sigmoid curves was performed in OriginPro (OriginLab).

[1] = target: T2, MUS81–EME1 binding to 3′ flap DNA substrate (Homo sapiens, UniProt Q96NY9); assay: Electrophoretic mobility shift assay (EMSA); conditions: MUS81–EME1 160 nM, no MgCl2
T2 construct: The MUS81–EME1 full-length expression plasmid was obtained from Stephen C; West; made in house; host or cells: Escherichia coli
T2 sequence (Q96NY9 1-551): T1 sequence (Q96NY9 1-551)
T2 sequence (Q96AY2 1-570 partner): T1 sequence (Q96AY2 1-570 partner)

[2] = Solubility in aqueous DMSO; assay type: physicochemical
U2OS cells [3] = assay: Annexin V apoptotic assay; assay type: cell-based; conditions: CPT 100 μM for the last 2 h
Description: (§1) Given these promising findings, we further investigated the specificity of MU262 and MU876 and potential short-term cytotoxicity. To mirror the treatment duration used in BIR and HR assays, U2OS cells were exposed to the inhibitors or siRNA for 3 days.
U2OS WT cells (300,000) were seeded in a 6-well plate, a subset of them was treated with either control siRNA or siRNA targeting MUS81. After adhesion, cells were treated with the respective inhibitors for 72 h during which CPT (100 μM, Sigma-Aldrich) was added for the last 2 h. Cells were harvested, washed in ice-cold PBS, and collected by centrifugation at 500g for 5 min. Cells were simultaneously stained with FITC-labeled annexin V antibody (556419, Becton Dickinson) and PI (5 μL) at room temperature for 15 min, protected from light. Stained cells were analyzed using a BD FACSVerse flow cytometer (Becton Dickinson) and FlowJo software (BD Life Sciences). At least 20,000 cells were used for each measurement, and experiments were performed in duplicates.

U2OS cells [4] = assay: EdU/PI cell cycle assay; assay type: cell-based; conditions: CPT 100 μM for the last 16 h
Description: as §1
U2OS WT cells (300,000) were seeded in a 6-well plate; a subset of them was treated with either control siRNA or siRNA targeting MUS81. After adhesion, cells were treated with the respective inhibitors for 72 h during which CPT ([…], Sigma-Aldrich) was added for the last 16 h and 10 μM EdU (Sigma-Aldrich) was added for the last 1 h. Cells were then harvested and stained by using the Click-iT EdU Alexa Fluor 647 Flow Cytometry Assay Kit (Thermo Fisher Scientific). Finally, cells were resuspended in 1xPBS containing 5 μg/mL of propidium iodide (PI) and analyzed using a BD FACSVerse flow cytometer (Becton Dickinson) and FlowJo software (BD Life Sciences). At least 20,000 cells were used for each measurement, and experiments were performed in duplicates.

| SMILES | IC50 (MUS81–EME1; Table 1, in vitro) [µM] | IC50 (MUS81–EME1; Table 2, in vitro) [µM] | other results |
| --- | --- | --- | --- |
| Cc1cc(=O)[nH]c(-n2nc(-c3ccccc3)cc2N(C)C(=O)c2cc(-c3ccccc3)on2)n1 [Compound 45] |  | > 10 | activity in the in vitro assay (MUS81–EME1): no activity; effect on MUS81–EME1 binding to 3′ flap DNA (EMSA) [1]: no significant effect |
| COCc1cc(=O)[nH]c(-n2nc(-c3ccccc3)cc2NC(=O)c2cc(-c3ccccc3)on2)n1 [Compound 51] |  | > 10 |  |
| Nc1c(-c2nc3ccccc3[nH]2)nnc2c(-c3ccc(F)cc3)cnn12 [Compound 4] | > 50 |  |  |
| Cc1cc(=O)[nH]c(-n2nc(-c3ccccc3)cc2NC(=O)c2cc(C3CCCCC3)on2)n1 [Compound 37] |  | > 10 |  |
| CCc1nn2c(C)c(-c3nc4ccccc4[nH]3)nnc2c1-c1ccc(F)cc1 [Compound 17] | > 10 |  | activity in the in vitro assay (MUS81–EME1): no activity; effect on MUS81–EME1 binding to 3′ flap DNA (EMSA) [1]: neither MU262 nor its inactive analogue MU1066 disrupted the MUS81–DNA interaction |
| CCc1nn2c(N)c(C(N)=O)nnc2c1-c1ccc(F)cc1 [Compound 21] | > 50 |  |  |
| Nc1c(-c2nc3ccccc3[nH]2)nnc2cc(-c3ccccc3Oc3ccccc3)nn12 [Compound 13] |  |  | solubility in aqueous DMSO [2]: only sparingly soluble in aqueous DMSO |
| CCc1nn2c(N)c(-c3ncc[nH]3)nnc2c1-c1ccc(F)cc1 [Compound 27] |  |  | solubility in aqueous DMSO [2]: less soluble in aqueous DMSO |
| CCc1nn2c(N)c(-c3nc4ccccc4n3Cc3ccccc3)nnc2c1-c1ccc(F)cc1 [Compound 22] | 8 |  |  |
| CCc1nn2c(O)c(-c3ncccn3)nnc2c1-c1ccc(F)cc1 [Compound 20] | > 40 |  |  |
| Nc1c(-c2nc3ccccc3[nH]2)nnc2cc(-c3ccc4ccccc4c3)nn12 [Compound 14] |  |  | solubility in aqueous DMSO [2]: only sparingly soluble in aqueous DMSO |
| Cc1cc(=O)[nH]c(-n2nc(-c3ccccc3)cc2NC(=O)c2cc(-c3ccccc3Br)on2)n1 [Compound 38] |  | > 10 |  |
| CCc1nn2c(O)c(-c3nc4ccccc4n3CCN3CCOCC3)nnc2c1-c1ccc(F)cc1 [Compound 24] | > 10 |  |  |
| Cc1cc(=O)[nH]c(-n2nc(-c3ccccc3)cc2NC(=O)c2csc(-c3ccccc3)n2)n1 [Compound 42] |  | > 10 |  |
| CC[C@@]1(O)C(=O)OCc2c1cc1n(c2=O)Cc2cc3ccccc3nc2-1 [CPT, camptothecin, reference compound] |  |  | apoptosis (Annexin V staining) (U2OS cells [3]): robust apoptosis; cell cycle profile (U2OS cells [4]): reduced the proportion of S phase cells |
| Cc1cc(=O)[nH]c(-n2nc(-c3ccccc3)c(C)c2NC(=O)c2cc(-c3ccccc3)on2)n1 [Compound 35] |  | > 10 |  |
| Nc1c(-c2nc3ccccc3[nH]2)nnc2cc(-c3ccccc3)nn12 [Compound 15] |  |  | solubility in aqueous DMSO [2]: only sparingly soluble in aqueous DMSO |
| CCc1cc2nnc(-c3nc4ccccc4[nH]3)c(N)n2n1 [Compound 5] | > 5 |  |  |

Further lines, with some results ahead:

| IC50 (MUS81–EME1; Table 1, in vitro) [µM] | IC50 (MUS81–EME1; Table 2, in vitro) [µM] | SMILES | other results |
| --- | --- | --- | --- |
| > 50 |  | Nc1c(-c2nc3ccccc3[nH]2)nnc2ccnn12 [Compound 3] |  |
|  | > 10 | COc1cc(C)nc(-n2nc(-c3ccccc3)cc2NC(=O)c2cc(-c3ccccc3)on2)n1 [Compound 49] |  |
| > 10 |  | CCc1nn2c(O)c(-c3nc4ccccc4n3CCN(C)C)nnc2c1-c1ccc(F)cc1 [Compound 23] |  |
|  | > 10 | Cn1nc(-c2ccccc2)cc1NC(=O)c1cc(-c2ccccc2)on1 [Compound 46] |  |
|  | > 10 | O=C(Nc1cc(-c2ccccc2)nn1-c1ccccc1)c1cc(-c2ccccc2)on1 [Compound 47] |  |
|  | > 10 | Cc1cc(=O)[nH]c(-n2nc(C3CCCCC3)cc2NC(=O)c2cc(-c3ccccc3)on2)n1 [Compound 34] |  |
| > 25 |  | CCc1nn2c(N)c(-c3nc4ccccc4[nH]3)nnc2c1-c1ccc(OC)cc1 [Compound 7] |  |
| 1.8 |  | Nc1c(-c2nc3ccccc3[nH]2)nnc2cc(-c3cccc4ccccc34)nn12 [Compound 12] | solubility in aqueous DMSO [2]: only sparingly soluble in aqueous DMSO |
|  | > 10 | COc1ccc(-c2cc(C(=O)Nc3cc(-c4ccccc4)nn3-c3nc(C)cc(=O)[nH]3)no2)cc1 [Compound 40] |  |
| > 10 |  | CCc1nn2cc(-c3nc4ccccc4[nH]3)nnc2c1-c1ccc(F)cc1 [Compound 16] |  |
| > 40 |  | CCc1nn2c(O)c(-c3nccn3C)nnc2c1-c1ccc(F)cc1 [Compound 25] | activity in the in vitro assay (MUS81–EME1): no activity |
|  | > 10 | O=C(Nc1cc(-c2ccccc2)nn1-c1ncccn1)c1cc(-c2ccccc2)on1 [Compound 48] |  |
